Results: ChEMBL document CHEMBL5036318, “Synthesis and Biological Evaluation of Phosphoester and Phosphorothioate Prodrugs of STING Agonist 3',3'-c-Di(2'F,2'dAMP)” (J Med Chem, 2021)
pEC50: −log10 of the molar value.

How the values were obtained:
[1] = target: T1, Stimulator of interferon genes protein (Homo sapiens, UniProt Q86WV6); experiment: Activation of wild-type human STING expressed in digitonin treated human THP1-Dual cells co-expressing IRF3-activated ISRE assessed as IRF3 reporter activation measured after 30 mins by luciferase reporter gene assay; assay type: cell-based
T1 sequence (Q86WV6 whole entry): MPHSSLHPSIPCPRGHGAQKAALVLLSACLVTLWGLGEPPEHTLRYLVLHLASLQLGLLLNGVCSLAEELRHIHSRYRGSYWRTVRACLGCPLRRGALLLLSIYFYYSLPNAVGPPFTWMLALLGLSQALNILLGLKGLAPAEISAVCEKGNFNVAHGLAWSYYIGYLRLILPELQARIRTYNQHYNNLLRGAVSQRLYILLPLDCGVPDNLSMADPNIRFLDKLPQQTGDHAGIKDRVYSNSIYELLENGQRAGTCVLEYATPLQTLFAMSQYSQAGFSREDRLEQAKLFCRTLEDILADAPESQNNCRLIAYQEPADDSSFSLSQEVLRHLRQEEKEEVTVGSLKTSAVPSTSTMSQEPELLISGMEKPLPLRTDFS

[2] = target: T1, Stimulator of interferon genes protein; experiment: Potency index, ratio of test compound EC50 to prodrug EC50 for activation of wild-type human STING expressed in HEK293T cells co-expressing IRF3-activated ISRE assessed as IRF3 reporter activation measured after 30 mins by luciferase reporter gene assay; assay type: cell-based
[3] = target: T1, Stimulator of interferon genes protein; experiment: Potency index, ratio of test compound EC50 to prodrug EC50 for activation of wild-type human STING expressed in digitonin treated THP1-Dual cells co-expressing IRF3-activated ISRE assessed as IRF3 reporter activation measured after 7 hrs by luciferase reporter gene assay; assay type: cell-based
[4] = target: T1, Stimulator of interferon genes protein; experiment: Activation of wild-type human STING expressed in HEK293T cells co-expressing IRF3-activated ISRE assessed as IRF3 reporter activation measured after 7 hrs by luciferase reporter gene assay; assay type: cell-based
[5] = target: T1, Stimulator of interferon genes protein; experiment: Potency index, ratio of test compound EC50 to prodrug EC50 for activation of wild-type human STING expressed in HEK293T cells co-expressing IRF3-activated ISRE assessed as IRF3 reporter activation measured after 7 hrs by luciferase reporter gene assay; assay type: cell-based
[6] = target: T1, Stimulator of interferon genes protein; experiment: Potency index, ratio of test compound EC50 to prodrug EC50 for activation of wild-type human STING expressed in human THP1-Dual cells co-expressing IRF3-activated ISRE assessed as IRF3 reporter activation measured after 30 mins by luciferase reporter gene assay; assay type: cell-based
[7] = target: T1, Stimulator of interferon genes protein; experiment: Activation of wild-type human STING expressed in HEK293T cells co-expressing IRF3-activated ISRE assessed as IRF3 reporter activation measured after 30 mins by luciferase reporter gene assay; assay type: cell-based
[8] = target: T1, Stimulator of interferon genes protein; experiment: Activation of wild-type human STING expressed in human THP1-Dual cells co-expressing IRF3-activated ISRE assessed as IRF3 reporter activation measured after 7 hrs by luciferase reporter gene assay; assay type: cell-based
[9] = Induction of INF-gamma production in healthy human PBMC incubated for 16 hrs; assay type: functional, tissue-based
[10] = Induction of INF-alpha production in healthy human PBMC incubated for 16 hrs; assay type: functional, tissue-based
[11] = Potency index, ratio of test compound EC50 to prodrug EC50 for induction of INF-alpha production in healthy human PBMC incubated for 16 hrs; assay type: functional
[12] = Potency index, ratio of test compound EC50 to prodrug EC50 for induction of TNF-alpha production in healthy human PBMC incubated for 16 hrs; assay type: functional
[13] = Induction of TNF-alpha production in healthy human PBMC incubated for 16 hrs; assay type: functional, tissue-based
[14] = Potency index, ratio of test compound EC50 to prodrug EC50 for induction of INF-gamma production in healthy human PBMC incubated for 16 hrs; assay type: functional
[15] = Activation of human STING Q mutant expressed in digitonin treated HEK293T cells co-expressing IRF3-activated ISRE assessed as IRF3 reporter activation by luciferase reporter gene assay; assay type: cell-based; conditions: HEK-293T
[16] = cells; conditions: Homo sapiens, HEK-293T
Description: Activation of human STING REF mutant expressed in digitonin treated HEK293T cells co-expressing IRF3-activated ISRE assessed as IRF3 reporter activation by luciferase reporter gene assay

[17] = target: Stimulator of interferon genes protein (Homo sapiens, UniProt Q86WV6, G230A/R293Q/R71H); experiment: Activation of human STING HAQ mutant expressed in digitonin treated HEK293T cells co-expressing IRF3-activated ISRE assessed as IRF3 reporter activation by luciferase reporter gene assay; assay type: cell-based
Stimulator of interferon genes protein (Homo sapiens, UniProt Q86WV6, G230A/R293Q/R71H), sequence (Q86WV6 whole entry R71H/G230A/R293Q): as the sequence (Q86WV6 whole entry) above, with R71H, G230A, R293Q counted along it

[18] = target: Stimulator of interferon genes protein (Homo sapiens, UniProt Q86WV6, G230A/R293Q); experiment: Activation of human STING QA mutant expressed in digitonin treated HEK293T cells co-expressing IRF3-activated ISRE assessed as IRF3 reporter activation by luciferase reporter gene assay; assay type: cell-based
Stimulator of interferon genes protein (Homo sapiens, UniProt Q86WV6, G230A/R293Q), sequence (Q86WV6 whole entry G230A/R293Q): as the sequence (Q86WV6 whole entry) above, with G230A, R293Q counted along it

[19] = target: T1, Stimulator of interferon genes protein; experiment: Activation of wild-type human STING expressed in digitonin treated HEK293T cells co-expressing IRF3-activated ISRE assessed as IRF3 reporter activation by luciferase reporter gene assay; assay type: cell-based

| pEC50 [1] | pEC50 [4] | pEC50 [7] | pEC50 [8] | pEC50 [15] | pEC50 [16] | pEC50 [17] | pEC50 [18] | pEC50 [19] | SMILES | Ratio EC50 [2] | Ratio EC50 [3] | Ratio EC50 [5] | Ratio EC50 [6] | pEC50 [9] | pEC50 [10] | Ratio EC50 [11] | Ratio EC50 [12] | pEC50 [13] | Ratio EC50 [14] |
| --- | --- | --- | --- | --- | --- | --- | --- | --- | --- | --- | --- | --- | --- | --- | --- | --- | --- | --- | --- |
| 5.77 | 6.49 | 5.71 | 6.70 |  |  |  |  |  | CC(C)OC(=O)OCO[P@]1(=O)OC[C@H]2O[C@@H](n3cnc4c(N)ncnc43)[C@H](F)[C@@H]2OP(=O)(O)OC[C@H]2O[C@@H](n3cnc4c(N)ncnc43)[C@H](F)[C@@H]2O1 | 50 | 5 | 25 | 11 |  |  |  |  |  |  |
| 5.76 | 6.40 | 5.51 | 6.57 |  |  |  |  |  | Nc1ncnc2c1ncn2[C@@H]1O[C@@H]2CO[P@@](=O)(OCOC(=O)c3ccccc3)O[C@H]3[C@@H](F)[C@H](n4cnc5c(N)ncnc54)O[C@@H]3COP(=O)(O)O[C@H]2[C@H]1F | 31 | 4 | 20 | 11 |  |  |  |  |  |  |
| 6.46 | 7.52 | 6.64 | 7.30 |  |  |  |  |  | CCC(CC)C(=O)OCO[P@@]1(=O)OC[C@H]2O[C@@H](n3cnc4c(N)ncnc43)[C@H](F)[C@@H]2O[P@](=O)(OCOC(=O)C(CC)CC)OC[C@H]2O[C@@H](n3cnc4c(N)ncnc43)[C@H](F)[C@@H]2O1 |  |  |  |  | 7.52 | 6.59 | 195 | 432 | 7.15 | 285 |
|  |  |  |  | < 4.35 | 5.08 |  |  |  | Nc1nc2c(ncn2[C@@H]2O[C@@H]3COP(=O)(O)O[C@H]4[C@@H](O)[C@H](n5cnc6c(=O)[nH]c(N)nc65)O[C@@H]4COP(=O)(O)O[C@H]3[C@H]2O)c(=O)[nH]1 |  |  |  |  |  |  |  |  |  |  |
|  |  |  |  | 5.15 |  | 6.72 | 6.77 |  | Nc1ncnc2c1ncn2[C@@H]1O[C@@H]2COP(=O)(O)O[C@H]3[C@@H](O)[C@H](n4cnc5c(N)ncnc54)O[C@@H]3COP(=O)(O)O[C@H]2[C@H]1O |  |  |  |  |  |  |  |  |  |  |
| 6.96 | 8.00 | 7.15 | 7.70 |  |  |  |  |  | CCC(CC)C(=O)OCO[P@]1(=O)OC[C@H]2O[C@@H](n3cnc4c(N)ncnc43)[C@H](F)[C@@H]2O[P@](=O)(OCOC(=O)C(CC)CC)OC[C@H]2O[C@@H](n3cnc4c(N)ncnc43)[C@H](F)[C@@H]2O1 |  |  |  |  | 8.40 | 7.30 | 985 | 1485 | 7.70 | 2135 |
| 4.72 | 5.10 | 4.02 | 5.99 | 6.85 | 6.74 | 6.89 |  | 7.70 | Nc1ncnc2c1ncn2[C@@H]1O[C@@H]2COP(=O)(O)O[C@H]3[C@@H](F)[C@H](n4cnc5c(N)ncnc54)O[C@@H]3COP(=O)(O)O[C@H]2[C@H]1F |  |  |  |  | 5.08 | 4.29 |  |  | 4.89 |  |
|  |  |  |  |  | 5.37 |  |  |  | Nc1nc2c(ncn2[C@@H]2O[C@@H]3COP(=O)(O)O[C@H]4[C@@H](O)[C@H](n5cnc6c(N)ncnc65)O[C@@H]4COP(=O)(O)O[C@H]3[C@H]2O)c(=O)[nH]1 |  |  |  |  | 4.82 | 4.57 |  |  | < 3.52 |  |
| 6.48 | 7.40 |  | 7.40 |  |  |  |  |  | Nc1ncnc2c1ncn2[C@@H]1O[C@@H]2CO[P@@](=O)(OCOC(=O)c3ccccc3)O[C@H]3[C@@H](F)[C@H](n4cnc5c(N)ncnc54)O[C@@H]3CO[P@](=O)(OCOC(=O)c3ccccc3)O[C@H]2[C@H]1F |  |  |  |  | 7.52 | 6.15 |  |  | 6.64 |  |
| 6.01 | 6.77 | 6.03 | 6.96 |  |  |  |  |  | CC(C)OC(=O)OCO[P@@]1(=O)OC[C@H]2O[C@@H](n3cnc4c(N)ncnc43)[C@H](F)[C@@H]2O[P@](=O)(OCOC(=O)OC(C)C)OC[C@H]2O[C@@H](n3cnc4c(N)ncnc43)[C@H](F)[C@@H]2O1 |  |  |  |  | 5.83 | 5.89 | 40 | 45 | 6.15 | 6 |
| 6.01 | 6.35 | 5.87 | 6.82 |  |  |  |  |  | CCC(CC)C(=O)OCO[P@]1(=O)OC[C@H]2O[C@@H](n3cnc4c(N)ncnc43)[C@H](F)[C@@H]2OP(=O)(O)OC[C@H]2O[C@@H](n3cnc4c(N)ncnc43)[C@H](F)[C@@H]2O1 | 71 | 7 | 18 | 20 |  |  |  |  |  |  |
| 6.42 | 7.52 | 6.51 | 7.52 |  |  |  |  |  | CC(C)OC(=O)OCO[P@]1(=O)OC[C@H]2O[C@@H](n3cnc4c(N)ncnc43)[C@H](F)[C@@H]2O[P@](=O)(OCOC(=O)OC(C)C)OC[C@H]2O[C@@H](n3cnc4c(N)ncnc43)[C@H](F)[C@@H]2O1 |  |  |  |  | 6.80 | 6.44 | 414 | 90 | 6.46 | 51 |

| SMILES | pEC50 [1] | pEC50 [4] | pEC50 [7] | pEC50 [8] | pEC50 [15] | pEC50 [16] | pEC50 [17] | pEC50 [18] | pEC50 [19] | Ratio EC50 [2] | Ratio EC50 [3] | Ratio EC50 [5] | Ratio EC50 [6] | pEC50 [9] | pEC50 [10] | Ratio EC50 [11] | Ratio EC50 [12] | pEC50 [13] | Ratio EC50 [14] |
| --- | --- | --- | --- | --- | --- | --- | --- | --- | --- | --- | --- | --- | --- | --- | --- | --- | --- | --- | --- |
| CC(C)(C)C(=O)OCO[P@]1(=O)OC[C@H]2O[C@@H](n3cnc4c(N)ncnc43)[C@H](F)[C@@H]2OP(=O)(O)OC[C@H]2O[C@@H](n3cnc4c(N)ncnc43)[C@H](F)[C@@H]2O1 | 6.30 | 6.89 | 6.34 | 6.74 |  |  |  |  |  | 212 | 6 | 61 | 38 |  |  |  |  |  |  |
| CC(C)(C)C(=O)OCS[P@]1(=O)OC[C@H]2O[C@@H](n3cnc4c(N)ncnc43)[C@H](F)[C@@H]2O[P@](=O)(SCOC(=O)C(C)(C)C)OC[C@H]2O[C@@H](n3cnc4c(N)ncnc43)[C@H](F)[C@@H]2O1 | 7.22 | 6.92 | 6.74 | 7.70 |  |  |  |  |  | 38 | 15 | 10 | 55 | 7.05 | 6.89 | 301 | 93 | 7.00 | 68 |
| CC(C)(C)C(=O)OCS[P@@]1(=O)OC[C@H]2O[C@@H](n3cnc4c(N)ncnc43)[C@H](F)[C@@H]2O[P@@](=O)(SCOC(=O)C(C)(C)C)OC[C@H]2O[C@@H](n3cnc4c(N)ncnc43)[C@H](F)[C@@H]2O1 | 7.10 | 7.15 | 7.40 | 7.30 |  |  |  |  |  | 62 | 159 | 23 | 152 | 5.92 | 6.14 | 41 | 146 | 6.74 | 8 |
| Nc1nc2c(ncn2[C@@H]2O[C@@H]3COP(=O)(O)O[C@@H]4[C@H](O)[C@@H](COP(=O)(O)O[C@@H]2[C@@H]3O)O[C@H]4n2cnc3c(N)ncnc32)c(=O)[nH]1 | 4.55 | 4.93 | 4.07 | 5.58 | 6.77 |  |  |  |  |  |  |  |  | 4.94 | 4.76 |  |  | 4.14 |  |
| CC(C)(C)C(=O)OCS[P@@]1(=O)OC[C@H]2O[C@@H](n3cnc4c(N)ncnc43)[C@H](F)[C@@H]2O[P@](=O)(SCOC(=O)C(C)(C)C)OC[C@H]2O[C@@H](n3cnc4c(N)ncnc43)[C@H](F)[C@@H]2O1 | 7.52 | 7.40 | 7.40 | 7.70 |  |  |  |  |  | 14 | 18 | 3 | 94 | 7.30 | 7.15 | 260 | 82 | 7.00 | 222 |
